Results reported in ChEMBL document CHEMBL1201862, “PubChem BioAssay data set” (2004).
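Method: 48-hour compound exposure of cells in 96-well plates, five concentrations, linear interpolation of endpoints. GI50: concentration for 50% inhibition of growth.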 Calls of active or inactive are those of the source. Cut-off read from the data, not from the text of the source: active = GI50 up to about 1.1 µM and inactive = higher.

How the values were obtained:
Assay in all cases: NCI-60 cell line screen, 48 h
UO-31 = test system: UO-31
OVCAR-5 = test system: OVCAR-5
NCI/ADR-RES = test system: NCI/ADR-RES
HCC 2998 = test system: HCC 2998
K562 = test system: K562
MDA-MB-435 = test system: MDA-MB-435
SF-295 = test system: SF-295
SK-MEL-5 = test system: SK-MEL-5
TK-10 = test system: TK-10
BT-549 = test system: BT-549
NCI-H23 = test system: NCI-H23
A498 = test system: A498
SNB-19 = test system: SNB-19
SK-OV-3 = test system: SK-OV-3
UACC-62 = test system: UACC-62
DU-145 = test system: DU-145
SF-268 = test system: SF-268
A549 = test system: A549
EKVX = test system: EKVX
RXF 393 = test system: RXF 393

Measured: GI50

CN(C)CCNC(=O)c1cccc2c1Oc1cccc([N+](=O)[O-])c1O2
inactive: UO-31 15.7 µM | OVCAR-5 20.5 µM | NCI/ADR-RES 19.1 µM | HCC 2998 23.7 µM | K562 20 µM | MDA-MB-435 16.5 µM | SF-295 17.5 µM | SK-MEL-5 19.1 µM | TK-10 21.4 µM | BT-549 13.3 µM | NCI-H23 24.7 µM | A498 15 µM | SNB-19 30 µM | SK-OV-3 14 µM | UACC-62 18.1 µM | DU-145 17.7 µM | SF-268 21.2 µM | A549 16 µM

CN(C)CCCN1c2ccccc2CCc2cccc([N+](=O)[O-])c21
inactive: UO-31 17.4 µM | OVCAR-5 28.8 µM | NCI/ADR-RES 16.5 µM | HCC 2998 17.7 µM | K562 15.1 µM | MDA-MB-435 16.7 µM | SF-295 16.5 µM | SK-MEL-5 16.4 µM | TK-10 21.5 µM | BT-549 25.9 µM | NCI-H23 34.4 µM | A498 19.5 µM | SNB-19 47.2 µM | SK-OV-3 28.6 µM | UACC-62 18.5 µM | DU-145 17.4 µM | EKVX 49.3 µM | SF-268 23.5 µM | A549 37.3 µM

Cc1ccc(-n2cc([Si](C)(C)C)nn2)s1
inactive: UO-31 84.3 µM | OVCAR-5 > 100 µM | NCI/ADR-RES 48.4 µM | HCC 2998 81.3 µM | K562 45.1 µM | MDA-MB-435 > 100 µM | SF-295 > 100 µM | SK-MEL-5 45.4 µM | TK-10 > 100 µM | BT-549 > 100 µM | NCI-H23 68.4 µM | A498 > 100 µM | SNB-19 > 100 µM | SK-OV-3 > 100 µM | UACC-62 > 100 µM | DU-145 > 100 µM | SF-268 > 100 µM | A549 > 100 µM

CC(=O)OC1O[C@@H](C(C)(C)O)CC[C@@H]1[C@H]1CC[C@@]2(C)C3=C(CC[C@]12C)[C@@]1(C)C[C@@H](OC(=O)CC(C)(O)CC(=O)O)[C@H](OC(C)=O)C(C)(C)C1CC3 (some centres not stated)
inactive: UO-31 15 µM | OVCAR-5 18.3 µM | NCI/ADR-RES 18.1 µM | HCC 2998 19 µM | K562 31.3 µM | MDA-MB-435 16.8 µM | SF-295 17.5 µM | SK-MEL-5 19.2 µM | TK-10 19.1 µM | BT-549 15.8 µM | NCI-H23 21.2 µM | A498 19.2 µM | SNB-19 17.7 µM | SK-OV-3 18.2 µM | UACC-62 27.7 µM | DU-145 19.1 µM | EKVX 17.5 µM | A549 17.2 µM

Oc1ccc(/N=C/c2ccc(/C=N/c3ccc(O)cc3)cc2)cc1
inactive: UO-31 15.2 µM | OVCAR-5 19.3 µM | NCI/ADR-RES 14.8 µM | K562 17.5 µM | MDA-MB-435 16.3 µM | RXF 393 17.1 µM | SF-295 16.8 µM | SK-MEL-5 15 µM | TK-10 18.1 µM | BT-549 17.4 µM | NCI-H23 17.1 µM | A498 24.3 µM | SNB-19 16 µM | SK-OV-3 16.9 µM | UACC-62 12.6 µM | DU-145 18 µM | EKVX 32.1 µM | SF-268 15.5 µM | A549 19.2 µM

CCNC(=O)Cc1nc2c(N)ncnc2n1C1OC(CO)C(O)C1O (configuration not stated)
inactive: UO-31 > 100 µM | NCI/ADR-RES > 100 µM | HCC 2998 95.7 µM | K562 > 100 µM | MDA-MB-435 > 100 µM | SF-295 > 100 µM | SK-MEL-5 > 100 µM | TK-10 > 100 µM | BT-549 > 100 µM | NCI-H23 > 100 µM | A498 > 100 µM | SNB-19 > 100 µM | SK-OV-3 39 µM | UACC-62 > 100 µM | DU-145 > 100 µM | EKVX > 100 µM | SF-268 > 100 µM | A549 > 100 µM

CC(=O)Oc1ccc(C)c2c1[C@H]1CC[C@]3(C)[C@@H](OC(C)=O)CC[C@H]3[C@@H]1CC2
inactive: UO-31 39.3 µM | OVCAR-5 > 100 µM | NCI/ADR-RES 18.2 µM | HCC 2998 18 µM | K562 23.4 µM | MDA-MB-435 17.9 µM | RXF 393 19.1 µM | SF-295 23.9 µM | SK-MEL-5 19.5 µM | TK-10 26.5 µM | BT-549 17.5 µM | NCI-H23 16.8 µM | A498 17.6 µM | SNB-19 17.9 µM | UACC-62 19.9 µM | DU-145 26.9 µM | EKVX 15.5 µM | SF-268 26.7 µM | A549 20.5 µM

Cc1ccc([N+](=O)[O-])cc1S(=O)(=O)Nc1ccc(C2=NN(C(=O)c3ccccc3)C(c3cccs3)C2)cc1 (configuration not stated)
inactive: UO-31 24 µM | OVCAR-5 42.5 µM | NCI/ADR-RES 30.9 µM | K562 22.1 µM | MDA-MB-435 33.1 µM | RXF 393 15.2 µM | SF-295 21 µM | SK-MEL-5 13.6 µM | TK-10 21.4 µM | BT-549 25.3 µM | NCI-H23 15.6 µM | A498 10.5 µM | SNB-19 33 µM | SK-OV-3 20.6 µM | DU-145 34.2 µM | EKVX 21.5 µM | SF-268 20 µM | A549 19.5 µM
